Measurements published in the supplement of paper PMC11451515.

What was measured:
Conditions in all cases: 48 h
SEM cells [1] = assay: cell viability relative to DMSO control; higher = less cytotoxic
How it was run: (§1)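 Library compounds in DMSO were pin-dosed in an 11-point threefold series (47 μM to 0.79 nM) onto leukemia cells in 1536-well plates (5 μl). Plates held 500 cells/well of NOMO1 or SEM or 1000 cells/well of P12-Ichikawa, each adapted for at least four passages in each medium. Luminescence was read with CellTiter-Glo One after 48 h at 37°C. Viability means the per-plate percentage relative to DMSO wells, using cell-free wells as background.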

P12-Ichikawa [2] = assay: as above
How it was run: as §1

NOMO1 [3] = assay: as above
How it was run: as §1

SEM cells [4] = assay: AUC of viability dose-response curve (% viability x log10 dose units); higher = less sensitive
How it was run: (§2)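 Leukemia cells adapted to each medium were seeded in 1536-well plates (500 or 1000 cells/well) and given library compounds in DMSO for 48 h at 37°C. The 11 threefold doses spanned 47 μM to 0.79 nM, and CellTiter-Glo One luminescence was normalised per plate to DMSO and cell-free wells before four-parameter log-logistic fitting on log10 dose. Area under the curve was integrated with the trapezoidal rule, scaling curves above full viability and removing curves that failed quality control.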

P12-Ichikawa [5] = assay: as above
How it was run: as §2

NOMO1 [6] = assay: as above
How it was run: as §2

COC1=CC=CC(=C1/C2=N/CC3=C(N=C(NC4=CC(=C(C=C4)C(O)=O)OC)N=C3)C5=CC=C(Cl)C=C25)F
cell viability [%]
Conditions | NOMO1 [3] | P12-Ichikawa [2] | SEM cells [1]
HPLM + 10% dialyzed FBS, 0.000781 µM | 78.5 | 82.2 | 83.2
HPLM + 10% dialyzed FBS, 0.00234 µM | 88.3 | 87.8 | 75.2
HPLM + 10% dialyzed FBS, 0.00702 µM | 78.9 | 82.3 | 93.3
HPLM + 10% dialyzed FBS, 0.0211 µM | 88.2 | 87.8 | 79.7
HPLM + 10% dialyzed FBS, 0.0632 µM | 76.3 | 56 | 65.7
HPLM + 10% dialyzed FBS, 0.19 µM | 38.6 | 16.6 | 26
HPLM + 10% dialyzed FBS, 0.569 µM | 53.4 | 13.5 | 25.3
HPLM + 10% dialyzed FBS, 1.71 µM | 48.3 | 12 | 33.1
HPLM + 10% dialyzed FBS, 5.12 µM | 58.6 | 13.9 | 28.9
HPLM + 10% dialyzed FBS, 15.4 µM | 62 | 18.2 | 25.8
HPLM + 10% dialyzed FBS, 46.1 µM | 51.6 | 20.5 | 23.4
RPMI 5 mM glucose + 10% FBS, 0.000781 µM | 70.8 | 93.8 | 91.7
RPMI 5 mM glucose + 10% FBS, 0.00234 µM | 80.6 | 81.6 | 84.3
RPMI 5 mM glucose + 10% FBS, 0.00702 µM | 77.2 | 77.9 | 85.4
RPMI 5 mM glucose + 10% FBS, 0.0211 µM | 84 | 83 | 85.4
RPMI 5 mM glucose + 10% FBS, 0.0632 µM | 71.4 | 49 | 68.7
RPMI 5 mM glucose + 10% FBS, 0.19 µM | 28.4 | 22.4 | 16.6
RPMI 5 mM glucose + 10% FBS, 0.569 µM | 48.8 | 16 | 18.1
RPMI 5 mM glucose + 10% FBS, 1.71 µM | 46.5 | 16 | 16.5
RPMI 5 mM glucose + 10% FBS, 5.12 µM | 49.8 | 15.8 | 18.9
RPMI 5 mM glucose + 10% FBS, 15.4 µM | 53.6 | 22.1 | 14
RPMI 5 mM glucose + 10% FBS, 46.1 µM | 61.8 | 28.5 | 16.4
RPMI 5 mM glucose + 10% dialyzed FBS, 0.000781 µM | 82.2 | 81 | 75.5
RPMI 5 mM glucose + 10% dialyzed FBS, 0.00234 µM | 77.5 | 80.3 | 80.7
RPMI 5 mM glucose + 10% dialyzed FBS, 0.00702 µM | 72.9 | 77.8 | 82.2
RPMI 5 mM glucose + 10% dialyzed FBS, 0.0211 µM | 82.2 | 77.7 | 88.8
RPMI 5 mM glucose + 10% dialyzed FBS, 0.0632 µM | 63.7 | 49.6 | 54
RPMI 5 mM glucose + 10% dialyzed FBS, 0.19 µM | 51.9 | 30 | 20.2
RPMI 5 mM glucose + 10% dialyzed FBS, 0.569 µM | 49.4 | 24.2 | 21.1
RPMI 5 mM glucose + 10% dialyzed FBS, 1.71 µM | 48.2 | 23 | 24
RPMI 5 mM glucose + 10% dialyzed FBS, 5.12 µM | 49 | 27.2 | 23.9
RPMI 5 mM glucose + 10% dialyzed FBS, 15.4 µM | 50.5 | 29.7 | 15.7
RPMI 5 mM glucose + 10% dialyzed FBS, 46.1 µM | 61 | 35.4 | 17.8

AUC of viability dose-response curve
Conditions | NOMO1 [6] | P12-Ichikawa [5] | SEM cells [4]
HPLM + 10% dialyzed FBS | 312 | 210 | 241
RPMI 5 mM glucose + 10% FBS | 291 | 217 | 221
RPMI 5 mM glucose + 10% dialyzed FBS | 297 | 230 | 216
